According to patent US6238873A, “Methods of screening for agonists and antagonists of the interaction between the human KIAA0001 receptor and ligands thereof” (Smithkline Beecham Corporation, priority 1999, dated 2001):

target: T1, human KIAA0001 receptor (Homo sapiens, UniProt Q15391); test: Specificity of response: nucleotide di-phosphate sugar spotted onto agar plate infused with yeast carrying human KIAA0001 receptor and FUS1-LacZ reporter; type: cell-based; conditions: 10 nmoles (1 microliter of 10 mM solution) spotted onto agar plate
T1 sequence (Q15391 1-338): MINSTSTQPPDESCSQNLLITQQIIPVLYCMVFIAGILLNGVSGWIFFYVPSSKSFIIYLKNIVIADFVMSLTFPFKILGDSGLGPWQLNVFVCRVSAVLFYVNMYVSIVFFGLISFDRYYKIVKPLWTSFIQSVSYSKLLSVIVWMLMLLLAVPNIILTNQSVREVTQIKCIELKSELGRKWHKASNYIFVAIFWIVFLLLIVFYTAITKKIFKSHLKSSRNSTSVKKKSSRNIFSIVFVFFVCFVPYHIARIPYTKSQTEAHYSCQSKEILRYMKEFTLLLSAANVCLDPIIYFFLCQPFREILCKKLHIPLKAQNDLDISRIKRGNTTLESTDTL
Experimental: The specificity of this response was determined by spotting 10 nmoles (1 microliter of 10 mM solution) of each nucleotide di-phosphate sugar onto an agar plate infused with a yeast strain carrying the human KIAA0001 receptor and the FUS1-LacZ reporter, as described above.

Structure (SMILES)	response on agar plate (FUS1-LacZ reporter)
Nc1ncnc2c1ncn2[C@@H]1O[C@H](COP(=O)(O)OP(=O)(O)O[C@H]2O[C@H](CO)[C@@H](O)[C@H](O)[C@@H]2O)[C@@H](O)[C@H]1O [ADP-mannose]	failed to produce a response
Nc1ncnc2c1ncn2[C@@H]1O[C@H](COP(=O)(O)OP(=O)(O)OC[C@H]2OC(O)[C@H](O)[C@@H]2O)[C@@H](O)[C@H]1O (stereo partly drawn) [ADP-ribose]	failed to produce a response
Nc1ccn([C@@H]2O[C@H](COP(=O)(O)OP(=O)(O)O[C@H]3O[C@H](CO)[C@@H](O)[C@H](O)[C@H]3O)[C@@H](O)[C@H]2O)c(=O)n1 [CDP-glucose]	failed to produce a response
Nc1nc2c(ncn2[C@@H]2O[C@H](COP(=O)(O)OP(=O)(O)O[C@H]3O[C@H](CO)[C@@H](O)[C@H](O)[C@H]3O)[C@@H](O)[C@H]2O)c(=O)[nH]1 [GDP-glucose]	failed to produce a response
Cc1cn([C@H]2C[C@H](O)[C@@H](COP(=O)(O)OP(=O)(O)O[C@H]3O[C@H](CO)[C@@H](O)[C@H](O)[C@H]3O)O2)c(=O)[nH]c1=O [TDP-glucose]	failed to produce a response
CC(=O)N[C@H]1[C@@H](OP(=O)(O)OP(=O)(O)OC[C@H]2O[C@@H](n3ccc(=O)[nH]c3=O)[C@H](O)[C@@H]2O)O[C@H](CO)[C@@H](O)[C@@H]1O [UDP-N-acetyl glucosamine]	positive response
O=C(O)[C@H]1O[C@H](OP(=O)(O)OP(=O)(O)OC[C@H]2O[C@@H](n3ccc(=O)[nH]c3=O)[C@H](O)[C@@H]2O)[C@H](O)[C@@H](O)[C@@H]1O [UDP-glucuronic acid]	positive response

Next, values leading:

response on agar plate (FUS1-LacZ reporter)	Structure (SMILES)
failed to produce a response	Nc1ncnc2c1ncn2[C@@H]1O[C@H](COP(=O)(O)OP(=O)(O)O[C@H]2O[C@H](CO)[C@@H](O)[C@H](O)[C@H]2O)[C@@H](O)[C@H]1O [ADP-glucose]
failed to produce a response	C[C@@H]1O[C@H](OP(=O)(O)OP(=O)(O)OC[C@H]2O[C@@H](n3cnc4c(=O)[nH]c(N)nc43)[C@H](O)[C@@H]2O)[C@@H](O)[C@H](O)[C@@H]1O [GDP-fucose]
failed to produce a response	Nc1nc2c(ncn2[C@@H]2O[C@H](COP(=O)(O)OP(=O)(O)O[C@H]3O[C@H](CO)[C@@H](O)[C@H](O)[C@@H]3O)[C@@H](O)[C@H]2O)c(=O)[nH]1 [GDP-mannose]

target: T1, human KIAA0001 receptor; test: not given; conditions: FUS1-LacZ yeast expressing human KIAA0001 receptor

response determined by expression of -galactosidase	Structure (SMILES)
receptor-dependentresponse	CC(=O)N[C@H]1[C@@H](OP(=O)(O)OP(=O)(O)OC[C@H]2O[C@@H](n3ccc(=O)[nH]c3=O)[C@H](O)[C@@H]2O)O[C@H](CO)[C@@H](O)[C@@H]1O [UDP-N-acetyl glucosamine]
receptor-dependentresponse	O=C(O)[C@H]1O[C@H](OP(=O)(O)OP(=O)(O)OC[C@H]2O[C@@H](n3ccc(=O)[nH]c3=O)[C@H](O)[C@@H]2O)[C@H](O)[C@@H](O)[C@@H]1O [UDP-glucuronic acid]
